Assay results from patent publication US20260215432A1, “ANTIMICROBIAL CONJUGATED OLIGOELECTROLYTES AND METHODS THEREOF” (National University of Singapore, priority 2023, published 2026).
Converted amounts (≈) assume the structure as drawn. “And” between values parts separate entries of the source, which are not always exact repeats. Equal values may be shown once. Read-outs that look alike come from different tables or passages of the source.

Assays:
[1] = phosphate-buffered saline; below 10 μg mL^−1 estimated by turbidimetric screening
Protocol: The solubility of all the TPP derivatives was determined in phosphate-buffered saline (PBS) (Table S3).

[2] = system: M. abscesses (ATCC 19977); assay: MIC against mycobacterium in Middlebrook 7H9 broth; assay type: cell-based, M. abscessus; settings: for MIC: Mycobacteroides abscessus, ATCC19977
Protocol: We also examined non-tuberculous mycobacteria (NTM). These are opportunistic pathogens that are rising in clinical significance due to their increasing prevalence and treatment difficulty. The membrane of Mycobacterium is inherently a greater antibiotic permeability barrier due to its high lipid content relative to other pathogens and long-tailed mycolic acids that contributed to its high lipophilic character. The antimicrobial activity of the TPP analogues were also evaluated against Mycobacterium in Middlebrook 7H9 broth.

[3] = system: A. baumanii (ATCC 17978); assay: MIC, broth microdilution in CA-MHB; assay type: cell-based; settings: for MIC AB: CA-MHB
Protocol: (§1) Antimicrobial activity was screened against a range of pathogens made up of clinically relevant ESKAPE pathogens by determination of the minimum inhibitory concentration (MIC) in cation-adjusted Mueller-Hinton broth (CA-MHB).
(§2) Minimum inhibitory concentrations of COEs were determined through a broth microdilution method in accordance with the Clinical and Laboratory Standards Institute (CLSI) guidelines M07-A10. A single bacterial colony was isolated from an overnight culture and grown to mid-log phase (OD600~0.8). Compounds were prepared as a stock solution in DMSO and diluted in a sterile flat-bottom 96-well plate in CA-MHB. Subsequent concentrations were prepared by two-fold dilution of the initial solution. An equivalent volume of bacteria was added to the compound to a final concentration of 5×10^5 cfu/mL. Plates were incubated at 37° C. for 16-18 hours, and read at OD600 using a microplate reader (TECAN Spark®). […] MIC values were determined for each compound in triplicate.

[4] = system: E. coli. K12 (ATCC 10798); assay: MIC, broth microdilution in CA-MHB; assay type: cell-based; settings: for MIC EC: CA-MHB
Protocol: as §1, §2

[5] = system: E. facium (ATCC 19434); assay: MIC, broth microdilution in CA-MHB; assay type: cell-based; settings: for MIC FAC: CA-MHB
Protocol: as §1, §2

[6] = system: E. faecalis OG1RF (ATCC 47077); assay: MIC, broth microdilution in CA-MHB; assay type: cell-based; settings: CA-MHB
Protocol: as §1, §2

[7] = system: K. pneumoniae (carbapenem-resistant Enterobacterales) (ATCC BAA1705); assay: MIC, broth microdilution in CA-MHB; assay type: cell-based; settings: CA-MHB
Protocol: as §1, §2

[8] = system: Methicillin-resistant S. aureus (ATCC BAA1717); assay: MIC, broth microdilution in CA-MHB; assay type: cell-based; settings: for MIC MRSA: CA-MHB
Protocol: as §1, §2

[9] = system: P. aeruginosa (ATCC47085); assay: MIC, broth microdilution in CA-MHB; assay type: cell-based; settings: CA-MHB
Protocol: as §1, §2

[10] = system: S. aureus (ATCC 29213); assay: MIC, broth microdilution in CA-MHB; assay type: cell-based
Protocol: as §1, §2

[11] = system: A549 (lung epithelial cells); assay: Cytotoxicity against mammalian cell line; assay type: cell-based
Protocol: The cytotoxicity of the TPP COEs was also tested against a mammalian cell line (A549).

Row | Molecule | solubility in PBS [1] | MIC [2] | MIC AB [3] | MIC EC [4] | MIC FAC [5] | MIC FAE [6] | MIC KP [7] | MIC MRSA [8] | MIC ([8]; towards MRSA, Table 3) | MIC PA [9] | MIC SA [10] | MIC M. abscesses [2] | IC50 [11] | MIC ([3]; Acinetobacter baumannii, ATCC17978, read-out: MIC AB) | MIC ([4]; Escherichia coli, ATCC10798, read-out: MIC EC) | MIC ([5]; read-out: MIC FAC) | MIC ([8]; Staphylococcus aureus, ATCC BAA-1717 / MRSA, read-out: MIC MRSA)
1 | C(=C\c1ccc(OCCCCCCCC[P+](c2ccccc2)(c2ccccc2)c2ccccc2)cc1)/c1ccc(OCCCCCCCC[P+](c2ccccc2)(c2ccccc2)c2ccccc2)cc1.[I-].[I-] [Compound D8P] | 4 µg/mL | – | – | – | – | – | – | – | – | – | – | – | – | – | – | – | –
2 | NCC[C@H](O)C(=O)N[C@@H]1C[C@H](N)[C@@H](O[C@H]2O[C@H](CN)[C@@H](O)[C@H](O)[C@H]2O)[C@H](O)[C@H]1O[C@H]1O[C@H](CO)[C@@H](O)[C@H](N)[C@H]1O [Amikacin, reference compound] | – | 8 µg/mL (≈ 13.7 µM) | – | – | – | – | – | – | – | – | – | – | – | – | – | – | –
3 | C(=C\c1ccc(OCCCC[P+](c2ccccc2)(c2ccccc2)c2ccccc2)cc1)/c1ccc(OCCCC[P+](c2ccccc2)(c2ccccc2)c2ccccc2)cc1.[I-].[I-] [Compound D4P] | 76 µg/mL | – | 32 µg/mL | 4 µg/mL and 8 µg/mL | 1 µg/mL | 1 µg/mL | 32 µg/mL | 2 µg/mL | 2 µg/mL | 16 µg/mL | 4 µg/mL | 32 µg/mL | 8 µg/mL | – | – | – | –
4 | C[N+](C)(C)CCCCCCOc1ccc(/C=C/c2ccc(OCCCCCC[N+](C)(C)C)cc2)cc1.[I-].[I-] [Compound D6, reference compound] | – | – | >64 µg/mL | 16 µg/mL | 8 µg/mL | 32 µg/mL | >64 µg/mL | 32 µg/mL | 32 µg/mL | >64 µg/mL | 32 µg/mL | – | 39 µg/mL | – | – | – | –
5 | COc1cc(/C=C/c2ccc(OCCCCCCCC[P+](c3ccccc3)(c3ccccc3)c3ccccc3)c(OC)c2)ccc1OCCCCCCCC[P+](c1ccccc1)(c1ccccc1)c1ccccc1.[I-].[I-] [DM8P] | 4 µg/mL | – | >4 µg/mL | >4 µg/mL | 1 µg/mL | 1 µg/mL | >4 µg/mL | 4 µg/mL | 4 µg/mL | >4 µg/mL | >4 µg/mL | 64 µg/mL | 10 µg/mL | – | – | – | –
6 | C(=C\c1ccc(OCCCCCC[P+](c2ccccc2)(c2ccccc2)c2ccccc2)cc1)/c1ccc(OCCCCCC[P+](c2ccccc2)(c2ccccc2)c2ccccc2)cc1.[I-].[I-] [Compound D6P] | 18 µg/mL | – | >16 µg/mL | 2 µg/mL | 1 µg/mL | 1 µg/mL | >16 µg/mL | 2 µg/mL | 2 µg/mL | 8 µg/mL | 2 µg/mL | 16 µg/mL | 13 µg/mL | – | – | – | –
7 | COc1cc(/C=C/c2ccc(OCCCCCC[P+](CCCO)(CCCO)CCCO)c(OC)c2)ccc1OCCCCCC[P+](CCCO)(CCCO)CCCO.[I-].[I-] [DM6THPP] | – | – | >64 µg/mL | >64 µg/mL | >64 µg/mL | >64 µg/mL | >64 µg/mL | >64 µg/mL | > 64 µg/mL | >64 µg/mL | >64 µg/mL | – | >1024 µg/mL | – | – | – | –
8 | CN[C@H](CC(C)C)C(=O)N[C@H]1C(=O)N[C@@H](CC(N)=O)C(=O)N[C@H]2C(=O)N[C@H]3C(=O)N[C@H](C(=O)N[C@H](C(=O)O)c4cc(O)cc(O)c4-c4cc3ccc4O)[C@H](O)c3ccc(c(Cl)c3)Oc3cc2cc(c3O[C@@H]2O[C@H](CO)[C@@H](O)[C@H](O)[C@H]2O[C@H]2C[C@](C)(N)[C@H](O)[C@H](C)O2)Oc2ccc(cc2Cl)[C@H]1O [Vancomycin, reference compound] | – | – | – | – | – | – | >128 µg/mL | – | – | – | – | – | – | > 128 µg/mL | > 128 µg/mL | 1 µg/mL (≈ 0.69 µM) | 1 µg/mL (≈ 0.69 µM)
9 | CC(=O)NC[C@H]1CN(c2ccc(N3CCOCC3)c(F)c2)C(=O)O1 [Linezolid, reference compound] | – | 8 µg/mL (≈ 23.7 µM) | – | – | – | – | – | – | – | – | – | – | – | – | – | – | –
10 | C[N+](C)(C)CCCCCCCCOc1ccc(/C=C/c2ccc(OCCCCCCCC[N+](C)(C)C)cc2)cc1.[I-].[I-] [Compound D8, reference compound] | – | – | 32 µg/mL | 4 µg/mL | 1 µg/mL | 4 µg/mL | 64 µg/mL | 8 µg/mL | 8 µg/mL | >64 µg/mL | 8 µg/mL | – | 11 µg/mL | – | – | – | –
11 | C[N+](C)(C)CCCCOc1ccc(/C=C/c2ccc(OCCCC[N+](C)(C)C)cc2)cc1.[I-].[I-] [Compound D4, reference compound] | – | – | >64 µg/mL | > 64 µg/mL and 128 µg/mL | 64 µg/mL | 128 µg/mL | >64 µg/mL | >64 µg/mL | > 64 µg/mL | >64 µg/mL | >64 µg/mL | – | 548 µg/mL | – | – | – | –
12 | Polymyxin B [reference compound] | – | – | 4 µg/mL | 1 µg/mL | – | – | 2 µg/mL | – | – | 2 µg/mL | – | – | – | – | – | – | –
